How the values were obtained:
NFκB = assay: CD40L-induced NFκB activation in DLBCL cell lines; assay type: cell-based
From the text: Consistent with the loss of IκBα in RCK8, the cell line presented with enhanced basal NFκB activity. […] […] We then attempted to knock IκBα down in cerdulatinib-sensitive cell lines using siRNA to determine if resistance to SYK/JAK inhibition could be generated. […] Ligation of CD40 leads to a transient down-regulation of IκBα at the protein level. […] The impact on NFκB activation was much longer, however, and of 7 cerdulatinib-sensitive cell lines tested, 5 were made resistant by co-culture with CD40L. Associated with this resistance was not only induction of NFκB, but also pERK Y204, pAKT S473, and pSTAT3 Y705.

SYK and JAK signaling = assay: Phase I study, inhibition of SYK and JAK in whole blood assays; assay type: in vivo, human
Experimental: Pharmacokinetics (“PK”), pharmacodynamics (“PD”), and safety were monitored. Response was assessed by standard criteria. The level of inhibition of SYK and JAK was determined using a variety of whole blood assays measuring signaling via receptors for the B-cell antigen, IL2, IL4, IL6, and GM-CSF. Serum markers of tumor burden, including CCL3, CCL4, and other markers of inflammation (02M and CRP), were also being measured.

OCI-Ly18 = assay: Combination synergy, Cell Titer Glo, 72 hours; assay type: cell-based; conditions: Homo sapiens, OCI-Ly18, 72 h
Experimental: Synergistic anti-tumor activity in DLBCL cell lines was determined using the Cell Titer Glo assay. Briefly, 5,000 cells were plated in 96 well plates in complete tissue culture media. […] Cells were incubated with or without drug for 72 hours in a 37° C. tissue culture incubator prior to evaluation by CellTiter Glo as per the manufacturer protocol (Promega). Synergy was evaluated by calculating a combination index score, as described elsewhere (Jacquement et al, Molecular Cancer 2012) following IC50 determination using Prism software. The compounds are commercially available or are made according to synthetic methods known to those skilled in the art.

DHL5 = assay: DLBCL cell line viability, CellTiter Glo, ten-point curve; assay type: cell-based; conditions: read-out: IC50 of Kinase Inhibitor in Cell Titer Glo Assay
From the text: (§1) Each IC50 value is an average of at least four replicate experiments.

DLCL2 = assay: as above; assay type: cell-based; conditions: read-out: IC50 of Kinase Inhibitor in Cell Titer Glo Assay
U2932 = assay: as above; assay type: cell-based; conditions: Homo sapiens, read-out: IC50 of Kinase Inhibitor in Cell Titer Glo Assay
From the text: as §1

[1] = test system: primary CLL cells from patients who responded to ibrutinib; assay: BrdU cell proliferation assay, combined stimulation; assay type: cell-based, human; conditions: 250 nM, day 8
DHL10 = assay: DLBCL cell line viability, CellTiter Glo, ten-point curve; assay type: cell-based; conditions: read-out: IC50 of Kinase Inhibitor in Cell Titer Glo Assay
From the text: as §1

LY18 = assay: as above; assay type: cell-based; conditions: read-out: IC50 of Kinase Inhibitor in Cell Titer Glo Assay
IL-4 JAK/STAT-6 pathway = assay: IL-4 induced signalling in CLL cells, immunoblotting and flow cytometry; assay type: cell-based, human
Experimental: Isolated CLL cells were cultured in RPMI-1640 with 15% fetal bovine serum (Gibco, Grand Island, N.Y., USA), penicillin (100 IU), and streptomycin (100 μg/mL), at a density of 1×10^7 cells/mL in the presence or absence of […] CpG, 100 ng/mL CD40L, 10 ng/mL IL-4. Anti-IgM stimulation was conducted with plate-bound anti-IgM (10 μg/mL). CLL cells were stimulated with 10 ng/mL IL-6 (R&D Systems, Minneapolis, Minn.), to detect the phosphorylation of JAK1/JAK2 (Cell Signaling Technology, Danvers, Mass.) and STAT3 (Cell Signaling Technology, Danvers, Mass., USA).

primary CLL cells = assay: Apoptosis in primary CLL samples, propidium iodide/Annexin V staining and PARP cleavage; assay type: cell-based, human
DLBCL cell lines = assay: Cerdulatinib-sensitive DLBCL cell lines co-cultured with CD40L; assay type: cell-based; conditions: of 7 cerdulatinib-sensitive cell lines tested
From the text: Consistent with the loss of IκBα in RCK8, the cell line presented with enhanced basal NFκB activity. […] Associated with suppression of NFκB was decreased cellular pAKT S473 and […], but not of pSTAT3 Y705. We then attempted to knock IκBα down in cerdulatinib-sensitive cell lines using siRNA to determine if resistance to SYK/JAK inhibition could be generated. […] Ligation of CD40 leads to a transient down-regulation of IκBα at the protein level. […] The impact on NFκB activation was much longer, however, and of 7 cerdulatinib-sensitive cell lines tested, 5 were made resistant by co-culture with CD40L. Associated with this resistance was not only induction of NFκB, but also pERK Y204, pAKT S473, and pSTAT3 Y705.

VAL = assay: DLBCL cell line viability, CellTiter Glo, ten-point curve; assay type: cell-based; conditions: read-out: IC50 of Kinase Inhibitor in Cell Titer Glo Assay

## CCS(=O)(=O)N1CCN(c2ccc(Nc3ncc(C(N)=O)c(NC4CC4)n3)cc2)CC1 [Cerdulatinib, 4-(cyclopropylamino)-2-(4-(4-(ethylsulfonyl)piperazin-1-yl)phenylamino)pyrimidine-5-carboxamide]
NFκB
  CD40L-induced NFκB activation: not inhibited
SYK and JAK signaling; 45 mg BID
  inhibition of SYK and JAK at SS Cmin, peripheral blood assays: complete inhibition
SYK and JAK signaling; Homo sapiens, 24 h, 65 mg dose, day 1 of cycle 1, read-out: inhibition of SYK/JAK and serum inflammation markers
  inhibition at 65 mg: 80 to 90%
SYK and JAK signaling; QD dosing of 40-100 mg
  inhibition of SYK and JAK signaling in peripheral blood (steady-state Cmin to Cmax): 50 to 100%
OCI-Ly18
  IC50: 1330 nM
DHL5
  IC50: 310 nM
DLCL2
  IC50: 5400 nM
U2932
  IC50: 2600 nM
[1]
  BrdU incorporation: responded equally well
DHL10
  IC50: 2300 nM
LY18
  IC50: 1000 nM
IL-4 JAK/STAT-6 pathway
  IL-4 induced STAT6 phosphorylation: abrogated
IL-4 JAK/STAT-6 pathway; 24 hours, in the presence of ZVAD
  IL-4 increased surface IgM expression: inhibited
Primary CLL cells
  85 kDa PARP sub-fragment: increased levels
  apoptosis in CLL cells with high CD49d or ZAP70 expression (>30%) compared to low (<30%): significantly greater apoptosis
  apoptosis in U-CLL compared to M-CLL: significantly greater apoptosis
  cleavage/activation of caspase 3 protein: induce cleavage/activation
DLBCL cell lines
  cell lines made resistant by co-culture with CD40L: 5
VAL
  IC50: 2700 nM
